We go through 1 compound from patent US7851467B2, “Carbamate compounds as 5-HT4 receptor agonists” (Theravance, Inc., priority 2005, dated 2010).

The target of this data set is T1, hERG cardiac potassium channel (Homo sapiens, UniProt Q12809).
T1 construct: host or cells: CHO-K1
The data set can be described thus: In vitro voltage clamp assay of inhibition of potassium ion current in whole cells expressing hERG. It counts as cell-based. The note with it: CHO-K1 cells stably transfected with hERG, pH 7.4, five-minute exposure. The procedure:
Assay 4: In Vitro Voltage Clamp Assay of Inhibition of Potassium Ion Current in Whole Cells Expressing the hERG Cardiac Potassium Channel
CHO-K1 cells stably transfected with hERG cDNA were obtained from Gail Robertson at the University of Wisconsin. Cells were held in cryogenic storage until needed. Cells were expanded and passaged in Dulbecco's Modified Eagles Medium/F12 supplemented with 10% fetal bovine serum and 200 μg/mL geneticin. Cells were seeded onto poly-D-lysine (100 μg/mL) coated glass coverslips, in 35 mm^2 dishes (containing 2 mL medium) at a density that enabled isolated cells to be selected for whole cell voltage-clamp studies. The dishes were maintained in a humidified, 5% CO2 environment at 37° C.
Extracellular solution was prepared at least every 7 days and stored at 4° C. when not in use. […]
The coverslips on which the cells were seeded were transferred to a recording chamber and perfused continuously. […] Peak current amplitudes during the repolarization phase were determined using pClamp software. […]
Peak current amplitudes during the repolarization phase were determined using pCLAMP software. […] The normalized current means and standard errors for each condition were calculated and plotted versus the time course of the experiment. […]
(The hERG channel carries a current that helps repolarise heart muscle cells.)

Each structure is given as a SMILES string.

T1 sequence (Q12809 whole entry): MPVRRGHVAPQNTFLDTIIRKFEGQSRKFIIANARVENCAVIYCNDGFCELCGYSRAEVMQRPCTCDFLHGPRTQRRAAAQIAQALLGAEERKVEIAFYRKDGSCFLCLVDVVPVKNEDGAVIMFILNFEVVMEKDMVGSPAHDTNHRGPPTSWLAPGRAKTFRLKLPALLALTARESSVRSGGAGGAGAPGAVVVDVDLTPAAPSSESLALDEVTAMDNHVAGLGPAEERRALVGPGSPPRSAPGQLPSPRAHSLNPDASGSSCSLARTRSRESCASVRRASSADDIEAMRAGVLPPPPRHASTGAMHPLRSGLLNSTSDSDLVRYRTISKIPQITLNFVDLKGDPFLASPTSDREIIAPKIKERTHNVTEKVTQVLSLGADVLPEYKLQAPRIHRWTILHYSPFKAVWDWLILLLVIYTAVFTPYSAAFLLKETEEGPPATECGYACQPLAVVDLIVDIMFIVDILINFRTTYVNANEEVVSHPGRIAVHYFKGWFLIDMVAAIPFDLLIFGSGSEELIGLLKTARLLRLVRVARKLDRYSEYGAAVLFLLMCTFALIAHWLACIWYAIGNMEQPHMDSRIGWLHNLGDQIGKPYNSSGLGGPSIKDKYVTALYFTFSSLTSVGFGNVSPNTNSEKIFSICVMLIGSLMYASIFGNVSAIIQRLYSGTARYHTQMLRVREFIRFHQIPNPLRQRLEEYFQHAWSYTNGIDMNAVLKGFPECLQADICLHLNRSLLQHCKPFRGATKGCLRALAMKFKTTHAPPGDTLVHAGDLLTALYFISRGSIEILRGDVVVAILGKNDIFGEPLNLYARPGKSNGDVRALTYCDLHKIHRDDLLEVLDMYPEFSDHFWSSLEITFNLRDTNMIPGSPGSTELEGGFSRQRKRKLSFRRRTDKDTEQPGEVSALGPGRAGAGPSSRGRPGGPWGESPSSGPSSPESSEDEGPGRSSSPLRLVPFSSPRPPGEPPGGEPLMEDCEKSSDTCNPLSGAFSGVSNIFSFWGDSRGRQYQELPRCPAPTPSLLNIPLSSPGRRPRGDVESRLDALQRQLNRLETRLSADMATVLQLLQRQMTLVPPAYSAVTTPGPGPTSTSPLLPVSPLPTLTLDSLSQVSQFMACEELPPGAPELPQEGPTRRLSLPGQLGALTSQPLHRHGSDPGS

On to `CC(C)n1c(=O)n(C(=O)N[C@H]2C[C@H]3CC[C@@H](C2)N3CCCOC(=O)N2CCN(C(=O)C3CCCO3)CC2)c2ccccc21` (stereo partly drawn) [Example 1, 4-(tetrahydrofuran-2-carbonyl)piperazine-1-carboxylic acid 3-{(1S,3R,5R)-3-[(3-isopropyl-2-oxo-2,3-dihydrobenzoimidazole-1-carbonyl)amino]-8-aza-bicyclo[3.2.1]oct-8-yl}propyl ester], for which the inhibition (as a rule, the share of the control response that was lost under treatment) at 5 min, 3 µM is about 9%.
